Values after ≈ are worked out from the molar mass of the structure shown.
Columns and labels:
Leishmania donovani [1] = assay: Antileishmanial activity against Leishmania donovani amastigotes infected in BALB/C mouse assessed as reduction in parasite burden in liver tissue at 6.25 mg/kg, po administered once per day for 5 days relative to control; type: functional; details: 120 h, time 5 day
Leishmania donovani [2] = assay: Antileishmanial activity against Leishmania donovani amastigotes infected in BALB/C mouse assessed as reduction in parasite burden in liver tissue at 12.5 mg/kg, po administered once per day for 5 days relative to control; type: functional; details: 120 h, time 5 day
Leishmania infantum [3] = assay: Antileishmanial activity against Leishmania infantum amastigotes infected in golden hamster assessed as reduction in parasite load in liver tissue at 50 mg/kg, po administered once daily for 5 days relative to control; type: functional; details: 120 h, time 5 day
Leishmania infantum [4] = assay: Antileishmanial activity against Leishmania infantum amastigotes infected in golden hamster assessed as reduction in parasite load in spleen tissue at 50 mg/kg, po administered once daily for 5 days relative to control; type: functional; details: 120 h, time 5 day
Leishmania infantum [5] = assay: Antileishmanial activity against Leishmania infantum amastigotes infected in golden hamster assessed as reduction in parasite load in bone marrow tissue at 50 mg/kg, po administered once daily for 5 days relative to control; type: functional; details: 120 h, time 5 day
[6] = Clearance in mouse at 1 mg/kg, iv measured upto 24 hrs LC-MS/MS analysis; details: in vivo
Leishmania infantum [7] = assay: Antileishmanial activity against Leishmania infantum MHOM/MA(BE)/67 amastigotes infected in macrophages assessed as reduction in parasite burden by giemsa staining based microscopic analysis; type: functional, organism-based
[8] = AUClast in mouse at 25 mg/kg, po measured upto 24 hrs LC-MS/MS analysis; details: in vivo
Trypanosoma cruzi = assay: Antitrypanosomal activity against Trypanosoma cruzi Tulahuen CL2 infected in human MRC-5 cells assessed as parasite growth; type: functional, organism-based; details: Tulahuen CL2, MRC5
[9] = Kinetic solubility of compound in water at pH7 by HPLC analysis; details: pH 7
hERG (KCNH2) = hERG (KCNH2) (Homo sapiens, UniProt Q12809); assay: Inhibition of human ERG expressed in HEK293 cells at 10 uM relative to control; type: cell-based; details: HEK293 cells expressing human ERG
[10] = Half life in mouse at 1 mg/kg, iv measured upto 24 hrs LC-MS/MS analysis; details: in vivo
in vivo [11] = details: mouse, po, 25 mg/kg
[12] = Volume of distribution at steady state in mouse at 1 mg/kg, iv measured upto 24 hrs LC-MS/MS analysis; details: in vivo
[13] = Stability of compound in CD-1 mouse liver microsomes assessed as percentage of parent compound remaining at 0.5 uM measured after 30 mins; type: ADME, Microsome; details: read-out: Stability
in vivo [14] = details: mouse, po, 25 mg/kg; remark: listed apart in the source
[15] = Stability of compound in hamster liver microsomes assessed as percentage of parent compound remaining at 0.5 uM measured after 30 mins; type: ADME, Cricetulus griseus, Microsome; details: chinese hamster, read-out: Stability
[16] = Stability of compound in human liver microsomes assessed as percentage of parent compound remaining at 0.5 uM measured after 30 mins; type: ADME, Microsome; details: read-out: Stability
[17] = AUClast in mouse at 1 mg/kg, iv measured upto 24 hrs LC-MS/MS analysis; details: in vivo
in vivo [18] = details: mouse, po, 25 mg/kg; remark: listed apart in the source
Leishmania donovani [19] = assay: Antileishmanial activity against Leishmania donovani amastigotes infected in mouse J774A.1 cells incubated for 72 hrs by luciferase assay; type: functional, organism-based; details: J774.A1, 72 h
[20] = Initial plasma concentration in mouse at 1 mg/kg, iv measured upto 24 hrs LC-MS/MS analysis
MRC5 = assay: Cytotoxicity against human MRC5 cells assessed as cell viability after 72 hrs by fluorimetric analysis; type: ADME, cell-based; details: MRC5, 72 h
Leishmania donovani [21] = assay: Antileishmanial activity against Leishmania donovani amastigotes infected in BALB/C mouse assessed as reduction in parasite burden in liver tissue at 3.13 mg/kg, po administered once per day for 5 days relative to control; type: functional; details: 120 h, time 5 day
Leishmania infantum [22] = assay: Antileishmanial activity against Leishmania infantum amastigotes infected in golden hamster assessed as reduction in parasite load in bone marrow tissue at 25 mg/kg, po administered once daily for 5 days relative to control; details: in Mesocricetus auratus, 120 h, read-out: INH
Leishmania donovani [23] = assay: Antileishmanial activity against Leishmania donovani amastigotes infected in BALB/C mouse assessed as reduction in parasite burden in liver tissue at 25 mg/kg, po administered once per day for 5 days relative to control; details: 120 h, read-out: INH
Leishmania infantum [24] = assay: animal or person; details: in Mesocricetus auratus, po, 120 h, read-out: INH
Description: Antileishmanial activity against Leishmania infantum amastigotes infected in golden hamster assessed as reduction in parasite load in bone marrow tissue at 12.5 mg/kg, po administered once daily for 5 days relative to control

Leishmania infantum [25] = assay: animal or person; details: in Mesocricetus auratus, po, 120 h, read-out: INH; remark: listed apart in the source
Description: Antileishmanial activity against Leishmania infantum amastigotes infected in golden hamster assessed as reduction in parasite load in spleen tissue at 12.5 mg/kg, po administered once daily for 5 days relative to control

Leishmania infantum [26] = assay: Antileishmanial activity against Leishmania infantum amastigotes infected in golden hamster assessed as reduction in parasite load in liver tissue at 25 mg/kg, po administered once daily for 5 days relative to control; details: in Mesocricetus auratus, 120 h, read-out: INH
Leishmania infantum [27] = assay: animal or person; details: in Mesocricetus auratus, po, 120 h, read-out: INH; remark: listed apart in the source
Description: Antileishmanial activity against Leishmania infantum amastigotes infected in golden hamster assessed as reduction in parasite load in liver tissue at 12.5 mg/kg, po administered once daily for 5 days relative to control

Chain of hERG (KCNH2) (Q12809 whole entry): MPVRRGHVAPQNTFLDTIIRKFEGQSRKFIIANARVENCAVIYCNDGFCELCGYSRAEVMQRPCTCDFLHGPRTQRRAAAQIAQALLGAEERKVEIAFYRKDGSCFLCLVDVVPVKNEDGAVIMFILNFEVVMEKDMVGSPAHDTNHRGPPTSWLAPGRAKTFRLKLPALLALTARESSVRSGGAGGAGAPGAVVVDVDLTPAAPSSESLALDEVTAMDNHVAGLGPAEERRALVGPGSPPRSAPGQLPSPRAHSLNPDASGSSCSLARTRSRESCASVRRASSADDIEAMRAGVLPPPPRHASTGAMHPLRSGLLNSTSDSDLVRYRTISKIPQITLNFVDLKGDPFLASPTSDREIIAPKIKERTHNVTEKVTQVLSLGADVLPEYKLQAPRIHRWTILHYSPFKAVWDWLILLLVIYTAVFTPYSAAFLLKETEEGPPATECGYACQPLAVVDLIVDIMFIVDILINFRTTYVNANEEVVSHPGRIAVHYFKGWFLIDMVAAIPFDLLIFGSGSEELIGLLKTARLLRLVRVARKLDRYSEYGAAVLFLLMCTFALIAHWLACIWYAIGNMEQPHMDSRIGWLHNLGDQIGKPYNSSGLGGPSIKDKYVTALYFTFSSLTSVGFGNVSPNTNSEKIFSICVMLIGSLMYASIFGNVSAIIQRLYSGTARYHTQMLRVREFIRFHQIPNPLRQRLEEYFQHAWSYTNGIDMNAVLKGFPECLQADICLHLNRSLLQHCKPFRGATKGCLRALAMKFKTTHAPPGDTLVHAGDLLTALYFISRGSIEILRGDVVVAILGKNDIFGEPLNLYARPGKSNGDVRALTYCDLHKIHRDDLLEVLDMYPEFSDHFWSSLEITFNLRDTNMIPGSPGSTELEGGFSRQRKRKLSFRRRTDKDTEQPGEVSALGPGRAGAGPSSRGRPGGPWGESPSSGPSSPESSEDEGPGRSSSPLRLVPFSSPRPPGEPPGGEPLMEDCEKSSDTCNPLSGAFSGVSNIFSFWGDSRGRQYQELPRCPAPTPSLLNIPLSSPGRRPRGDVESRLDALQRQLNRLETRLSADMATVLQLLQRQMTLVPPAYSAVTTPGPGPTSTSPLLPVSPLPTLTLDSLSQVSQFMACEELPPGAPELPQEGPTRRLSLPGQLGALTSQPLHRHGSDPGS

Compound `C[C@]1(COc2ccc(OC(F)(F)F)cc2)Cn2cc([N+](=O)[O-])nc2O1` has an inhibition in vivo at 6.25 mg/kg (Leishmania donovani [1]) of over 99% and an inhibition in vivo at 12.5 mg/kg (Leishmania donovani [2]) of over 99%.

`CC1(COc2ccc(OC(F)(F)F)cc2)CCn2cc([N+](=O)[O-])nc2O1` (stereo not given) gave an inhibition in vivo at 50 mg/kg (Leishmania infantum [3]) of 100%, an inhibition in vivo at 50 mg/kg (Leishmania infantum [4]) of 99.7% and an inhibition in vivo at 12.5 mg/kg (Leishmania donovani [2]) of over 99%. The inhibition in vivo at 50 mg/kg (Leishmania infantum [5]) was 99.5%.

`O=[N+]([O-])c1cn2c(n1)OC(COc1ncc(Cl)cn1)CC2` (stereo not given) showed a clearance at 24 h [6] of 7.3 mL/min/kg, an IC50 (Leishmania infantum [7]) of over 64 µM and an AUC(0-t) at 24 h [8] of 3830 ng·h/mL. It also gave an IC50 (Trypanosoma cruzi) of 39 µM, a solubility kinetic [9] of 6.6 µg/mL (≈ 21.2 µM) and an inhibition at 10 µM (hERG (KCNH2)) of 12%. It also gave an AUC at 24 h [10] of 580 ng·h/mL, a bioavailability at 24 h (in vivo [11]) of 15% and a Vd at 24 h [12] of 0.37 L/kg. The remaining at 0.5 h, 0.5 µM [13] was 100%, the Tmax at 24 h (in vivo [14]) was 2 h and the remaining at 0.5 h, 0.5 µM [15] was 90%. It also gave a remaining at 0.5 h, 0.5 µM [16] of 99%, an AUC(0-t) at 24 h [17] of 2070 ng·h/mL and a Cmax at 24 h (in vivo [18]) of 760 ng/mL. For the same compound, the IC50 (Leishmania donovani [19]) was 0.12 µM, the C0 at 24 h [20] was 1900 ng/mL and the IC50 (MRC5) was over 64 µM.

For `C[C@]1(COc2ccc(OC(F)(F)F)cc2)CCn2cc([N+](=O)[O-])nc2O1`, the inhibition in vivo at 3.13 mg/kg (Leishmania donovani [21]) was 51%, the inhibition in vivo at 25 mg/kg (Leishmania infantum [22]) was 81.5% and the inhibition in vivo at 25 mg/kg (Leishmania donovani [23]) was over 99%. For the same compound, the inhibition in vivo at 12.5 mg/kg (Leishmania infantum [24]) was 42.5%, the inhibition in vivo at 50 mg/kg (Leishmania infantum [3]) was 99.6% and the inhibition in vivo at 50 mg/kg (Leishmania infantum [4]) was 98%. It also gave an inhibition in vivo at 12.5 mg/kg (Leishmania infantum [25]) of 59.5%, an inhibition in vivo at 25 mg/kg (Leishmania infantum [26]) of 93.6% and an IC50 (Leishmania donovani [19]) of 0.06 µM. The inhibition in vivo at 12.5 mg/kg (Leishmania infantum [27]) was 67.8% and the inhibition in vivo at 50 mg/kg (Leishmania infantum [5]) was 96.7%.

— ChEMBL document CHEMBL5036301, “Heteroaryl ether analogues of an antileishmanial 7-substituted 2-nitroimidazooxazine lead afford attenuated hERG risk: In vitro and in vivo appraisal” (Eur J Med Chem, 2021)
